{"source": "paper PMC9867837", "about": "(Cancer letters, 2022)", "key": {"pYStat3C426A": {"target": "T1, pYStat3C426A (Homo sapiens, UniProt P40763, C426A)", "T1 construct": "made in house; host or cells: E. coli BL21(DE3) TKB1 (inducible tyrosine kinase)", "T1 sequence (P40763 127-711 C426A)": "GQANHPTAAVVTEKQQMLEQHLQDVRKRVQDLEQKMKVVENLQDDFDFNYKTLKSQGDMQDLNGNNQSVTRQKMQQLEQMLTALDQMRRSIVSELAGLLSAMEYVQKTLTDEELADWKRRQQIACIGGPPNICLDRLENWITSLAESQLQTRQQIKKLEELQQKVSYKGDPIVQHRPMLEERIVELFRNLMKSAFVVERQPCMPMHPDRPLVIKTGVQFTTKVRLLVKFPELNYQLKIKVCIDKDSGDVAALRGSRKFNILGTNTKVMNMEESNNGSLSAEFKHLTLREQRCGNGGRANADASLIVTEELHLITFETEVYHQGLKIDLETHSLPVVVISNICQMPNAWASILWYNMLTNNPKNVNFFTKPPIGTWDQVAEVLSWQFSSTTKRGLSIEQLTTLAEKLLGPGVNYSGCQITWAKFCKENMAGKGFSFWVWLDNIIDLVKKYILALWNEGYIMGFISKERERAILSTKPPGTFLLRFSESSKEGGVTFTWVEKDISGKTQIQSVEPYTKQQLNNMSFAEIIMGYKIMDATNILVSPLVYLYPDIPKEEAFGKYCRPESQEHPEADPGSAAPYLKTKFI", "experiment": "EMSA with purified mutant pYStat3C426A", "type": "biochemical", "description": "(§1) This construct was used to generate the mutants, Stat3C328A, Stat3C426A, Stat3C468A, and Stat3C542S, as described in detail in Supplementary Information “Methods”.\n(§2) The expression of un-phosphorylated and tyrosine phosphorylated His-tagged recombinant wtStat3 and mutant Stat3 proteins in BL21 (DE3) bacterial cells is described in detail in Supplementary Information “Methods”.\n(§3) Given the MS data, we conducted site-directed mutagenesis analysis for the effects of Cys mutations (Cys-to-Ala or Cys-to-Ser mutations) on the inhibitory activities or potencies of the compounds. […] Purified, phosphorylated wild-type (wt)Stat3, and phosphorylated mutants, Stat3C328A, Stat3C426A, Stat3C468A, and Stat3C542S protein samples of equal amounts were pre-incubated with or without 3 μM H182 for 30 min at room temperature prior to incubation with the radiolabeled hSIE probe that binds Stat3 and subjecting to EMSA analysis. […] Focusing on the C426 and C468, we next conducted dose-response studies for effects of H182 on Stat3C426A and Stat3C468A. […] Equal proteins used in the DNA-binding assay/EMSA analysis are shown by SDS-PAGE Coomassie staining (Fig. 3B, lower). […]\n(§4) In another case, the nuclear extract was pre-incubated with the radiolabeled probe for 30 min at 30 °C prior to incubation with increasing concentration of H182 at room temperature for 30 min and subjecting to EMSA analysis. Bands corresponding to Stats DNA- binding activities were scanned and quantified using ImageJ and plotted as a percentage of control (vehicle) against the concentration of the inhibitor, from which the IC50 values were derived . […]\n(§5) These studies were performed as previously reported using the v-Src -transformed NIH3T3/v-Src fibroblasts [1 -5] . […] Luciferase activity was normalized to total protein concentration of cell lysate, which was determined by Bradford assay (Bio-Rad, Hercules, CA) . […]"}, "pYStat3C468A": {"target": "T2, pYStat3C468A (Homo sapiens, UniProt P40763, C468A)", "T2 construct": "made in house; host or cells: E. coli BL21(DE3) TKB1 (inducible tyrosine kinase)", "T2 sequence (P40763 127-711 C468A)": "as the sequence (P40763 127-711 C426A) above, with A300C, C342A counted along it", "experiment": "EMSA with purified mutant pYStat3C468A", "type": "biochemical", "description": "as §1, §2, §3, §4, §5"}, "wtpYStat3": {"target": "T3, wtpYStat3 (Homo sapiens, UniProt P40763)", "T3 construct": "made in house; host or cells: E. coli BL21(DE3) TKB1 (inducible tyrosine kinase)", "T3 sequence (P40763 127-711)": "as the sequence (P40763 127-711 C426A) above, with A300C counted along it", "experiment": "EMSA with purified wild-type pYStat3", "type": "biochemical", "details": "3 μM H182, 30 min", "description": "as §1, §2\n(§6) Given the MS data, we conducted site-directed mutagenesis analysis for the effects of Cys mutations (Cys-to-Ala or Cys-to-Ser mutations) on the inhibitory activities or potencies of the compounds. […]\nas §4, §5"}, "pYStat3C542S": {"target": "T4, pYStat3C542S (Homo sapiens, UniProt P40763, C542S)", "T4 construct": "made in house; host or cells: E. coli BL21(DE3) TKB1 (inducible tyrosine kinase)", "T4 sequence (P40763 127-711 C542S)": "as the sequence (P40763 127-711 C426A) above, with A300C, C416S counted along it", "experiment": "EMSA with purified mutant pYStat3C542S", "type": "biochemical", "details": "3 μM H182, 30 min", "description": "as §1, §2, §6, §4, §5"}, "[1]": {"tested_on": "Stat3-dependent luciferase reporter, pLucTKS3", "experiment": "Stat3-dependent luciferase reporter pLucTKS3 in NIH3T3/v-Src", "type": "cell-based, mouse", "details": "1–3 μM H182 for 1 h", "protocol": "These studies were performed as previously reported using the v-Src-transformed NIH3T3/v-Src fibroblasts. Details are presented in Supplementary Information, “Methods”.\nWe next evaluated the effects of the azetidine compound, H182 on Stat3 transcriptional activity. We used mouse fibroblasts transformed by the viral Src oncoprotein (NIH3T3/vSrc) that harbor constitutive Stat3 activation, which were transiently transfected with the Stat3-dependent luciferase reporter, pLucTKS3 [25, 30]. Transfected cells were treated with H182 and the luciferase activity was assayed in the cytosolic extract preparations of equal total protein [12, 13, 30]. […]\nas §4, §5"}}, "data": [{"smiles": "O=C([C@H]1CCN1S(=O)(=O)c1c(F)c(F)c(F)c(F)c1F)N(Cc1ccc(C2CCCCC2)cn1)c1ccc2c(=O)[nH]ncc2c1", "note": "[Compound H182]", "values": [{"measurement": "Effect on DNA-binding activity of pYStat3C426A", "setting": "pYStat3C426A; 3 μM H182, 30 min", "value": "unaffected"}, {"measurement": "Effect on pYStat3C426A activity", "setting": "pYStat3C426A; 10 μM H182", "value": "near complete inhibition"}, {"measurement": "IC50", "setting": "pYStat3C426A; EMSA, 0–50 μM H182, 30 min", "value": 6, "unit": "µM"}, {"measurement": "Effect on DNA-binding activity of pYStat3C468A", "setting": "pYStat3C468A; 3 μM H182, 30 min", "value": "unaffected"}, {"measurement": "Effect on pYStat3C468A activity", "setting": "pYStat3C468A; 10 μM H182", "value": "no effect"}, {"measurement": "IC50", "setting": "pYStat3C468A; EMSA, 0–50 μM H182, 30 min", "value": 40, "unit": "µM"}, {"measurement": "Effect on DNA-binding activity of wtpYStat3", "setting": "wtpYStat3", "value": "strong inhibition"}, {"measurement": "Effect on DNA-binding activity of pYStat3C542S", "setting": "pYStat3C542S", "value": "strong inhibition"}, {"measurement": "Effect on Stat3-driven luciferase reporter expression (pLucTKS3)", "setting": "[1]", "value": "dose-dependent inhibition"}]}]}
